Here are results for three compounds from US8486916B2, “Medicine, food and drink or feed containing sphingomyelin” (Megmilk Snow Brand Co., Ltd., priority 2005, dated 2013).

The subject of experiment [1] is carrageenin-induced edema. In words: Carrageenin-induced footpad edema method. The conditions noted are these: 100 mg/kg oral; 5 hours after λ-carrageenin injection. Type of experiment: in vivo, Wistar rats. As for the experimental part: The anti-inflammatory effect of sphingomyelin was tested by a carrageenin-induced footpad edema method. Specifically, a test subject shown in Table 15 was suspended in an aqueous solution containing 0.5% carboxymethylcellulose and orally administered (100 mg/kg) to male Wistar rats (body weight: 110 to 130 g, 8 individuals per group) according to the method of Winter et al. (Proceedings of the Society for Experimental Biology & Medicine, vol. 111, pp. 554, 1962). […] An aqueous solution containing 0.5% carboxymethylcellulose and no test substance was administered to rats in a control group. A rate of increase in footpad volume (V0) attributed to the injection of λ-carrageenin was measured in the control group in the same way as above. An carrageenin-induced edema inhibition rate (%) was calculated according to the calculation formula: (V0−V1)×100/V0 and used as the anti-inflammatory activity of the test substance. A higher value of this inhibition rate indicates higher anti-inflammatory activity.
On the technique in general: The carrageenan paw model is a standard test of acute inflammation.

For experiment [2], the system named is sialomucin content in the saliva. In words: Effect of promoting sialomucin secretion: sialomucin content in rat saliva. Type of experiment: in vivo, SD rats. Particulars: 7th day of experimental diet containing 1% of the substance. Here is the method:
Seven-week-old male SD rats (manufactured by Charles River Laboratories, Japan, Inc) were raised under conditions involving humidity of 60%, room temperature of 24° C., and light-dark (12 hour/12 hour) control. All the rats were preliminarily raised for 1 week with a standard diet and then divided into 3 groups each containing 12 individuals. These groups were allowed to freely take their respective experimental diets and raised for 1 week. Rat saliva was collected on the 7th day after the administration of experimental diets. A sialomucin content in the saliva was measured by high-performance liquid chromatography. […] In this context, a sialomucin content in the saliva was measured by the following method: 0.2 ml of a Nembutal solution was intramuscularly injected to rats fasted for 2 hours or longer. After anesthesia, a solution of pilocarpine hydrochloride serving as a saliva secretion promoter was intramuscularly injected thereto. […] A sialomucin content in the sialomucin fraction was quantified with a Sialic Acid Fluorescence Labeling Kit (Takara Bio Inc.). […] Free N-acetyl sialic acid or O-acetylated sialic acid was reacted at 55° C. for 2.5 hours by the addition of a DMB reagent as a fluorescence labeling agent and then quantified by high-performance liquid chromatography.

In a further experiment the test system is cholera toxin. Particulars: in vivo.

`CC(=O)N[C@H]1[C@H]([C@H](O)[C@H](O)CO)OC(O)(C(=O)O)C[C@@H]1O` (stereo partly shown) [Sialic acid (derived from milk), Sialic acid] gave an Inhibition rate in experiment [1] of 38.1%.
As to sialyllactose [SL, reference compound], the Sialomucin content in experiment [2] turned out to be 24.9 ± 3.1 µg/µL. Besides, the Inhibition rate in the experiment with cholera toxin was found to be 37.9 ± 2.9%.
Regarding `COc1ccc2c(c1)c(CC(=O)O)c(C)n2C(=O)c1ccc(Cl)cc1` [Indomethacin], in experiment [1], the Inhibition rate is recorded as 37.5%.
